The values below come from US6407096B1, “Benzene fused heterocyclic derivatives having thromboxane A2 receptor antagonistic activity and prostaglandin I2 Agonistic activity and application thereof” (Toray Industries, Inc., priority 1998, dated 2002).

Each structure is given as a SMILES string.

Regarding `O=C(O)COc1cccc2c1OCC(=O)N2CC(=O)NC(c1ccccc1)c1ccccc1` [Example 32, (4-((diphenylmethylcarbamoyl)methyl)-3-oxo-3,4-dihydro-2H-1,4-benzoxazin-8-yloxy)acetic acid], the melting point (usually the temperature, or range, at which the solid turns liquid) lay in the range of 232 to 234 °C.
The value for `COC(=O)COc1cccc2c1OCCN2CCSC(C)(c1ccccc1)c1ccccc1` [Example 2, Methyl (4-(2-(1,1-diphenylethylthio)ethyl)-3,4-dihydro-2H-1,4-benzoxazin-8-yloxy)acetate] was 101 °C; that for `CC(SCCN1CCOc2c(OCC(=O)[O-])cccc21)(c1ccccc1)c1ccccc1.[Na+]` was 110 °C.
To `CC(SCCN1C(=O)COc2c(CCC(=O)O)cccc21)(c1ccccc1)c1ccccc1` [Example 33, 3-(4-(2-(1,1-diphenylethylthio)ethyl)-3-oxo-3,4-dihydro-2H-1,4-benzoxazin-8-yl)propionic acid] belongs 110.1 °C; to `O=C(O)COc1cccc2c1OCCN2CCSC(c1ccccc1)(c1ccccc1)C(F)(F)F` [Example 22, (4-(2-(1,1-diphenyl-2,2,2-trifluoroethylthio)ethyl)-3,4-dihydro-2H-1,4-benzoxazin-8-yloxy)acetic acid], 140 to 140.5 °C; to `O=C(O)COc1cccc2c1OCCN2CCSCc1ccccc1` [Example 25, (4-(2-(benzylthio)ethyl)-3,4-dihydro-2H-1,4-benzoxazin-8-yloxy) acetic acid], 127 to 131 °C.
To `COC(=O)COc1cccc2c1OCC(=O)N2CC(=O)NC(c1ccccc1)c1ccccc1` [Example 12, Methyl (4-((diphenylmethylcarbamoyl)methyl)-3-oxo-3,4-dihydro-2H-1,4-benzoxazin-8-yloxy)acetate] belongs 183 to 184 °C; to `COC(=O)COc1cccc2c1OCCN2CCSC(c1ccccc1)c1ccccc1`, 94 to 95 °C; to `CC(SCCN1CCOc2c(OCC(=O)O)cccc21)(c1ccsc1)c1ccsc1` [Example 27], 149 °C.
Compound `CC(SCCN1CCOc2c(OCC(=O)O)cccc21)(c1ccc(F)cc1)c1ccc(F)cc1` [Example 23, (4-(2-(1,1-bis-(4-fluorophenyl)ethylthio)-ethyl)-3,4-dihydro-2H-1,4-benzoxazin-8-yloxy)acetic acid] showed a melting point of 142 to 143 °C.
Turning to `CC(CSCCN1CCOc2c(OCC(=O)O)cccc21)(c1ccccc1)c1ccccc1` [Example 26, (4-(2-(2,2-diphenylpropylthio)ethyl)-3,4-dihydro-2H-1,4-benzoxazin-8-yloxy)acetic acid], the melting point lay in the range of 138 to 139 °C.
For `CC(SCCN1C(=O)COc2c(OCC(=O)O)cccc21)(c1ccccc1)c1ccccc1` [Example 31, (4-(2-(1,1-diphenylethylthio)ethyl)-3-oxo-3,4-dihydro-2H-1,4-benzoxazin-8-yloxy)acetic acid], the melting point was determined as 106 °C.
To `CC(C)(SCCN1CCOc2c(OCC(=O)O)cccc21)c1ccccc1` [Example 24, (4-(2-(1-methyl-1-phenylethylthio)ethyl)-3,4-dihydro-2H-1,4-benzoxazin-8-yloxy)acetic acid] belongs 114 °C.
